Data on six compounds can be found in patent US4510082A, “Pharmacologically active peptides” (Eli Lilly and Company, priority 1983, dated 1985).

Structures can show the parent of a compound that is named as a salt.

The subject of test [1] is mouse (Harlan ND4). As to the kind of experiment: mouse hot plate test (mouse jump). As to conditions: subcutaneous injection, tested 15 minutes after administration, hot plate 55° C. The format is in vivo. The method, then: In the mouse hot plate test, an upright acrylic cylinder comprising, as its base, a hot plate surface which is maintained at 55° C. is used. A mouse (Harlan ND4) is given, by subcutaneous injection, a predetermined amount of test compound dissolved or suspended in a suitable carrier, and, 15 minutes after administration of the test compound, the mouse is placed on the hot plate surface. The latency in seconds until the mouse jumps from the hot plate surface is measured. […] This must occur in a dose range which produces no motor incoordination or incapacitation. The following Table records ED50 results obtained from this test. By the term "ED50 " is meant that dose which produces analgesia in 50% of the mice tested. Analgesia is defined as a response latency in the presence of test compound that is equal to or greater than the control response latency plus two standard deviations. The percent analgesia data are converted to probits, and the ED50 is calculated by regression analysis of the dose-response data. Each dose response curve must have at least four points, and each point is determined using data from a minimum of ten treated mice and ten control mice.
A general note: Thermal pain tests record how soon the animal reacts.

In test [2] the test system is Cox Standard albino mice. In words: mouse writhing test (acetic acid induced). It is filed as in vivo. As to conditions: 0.6% acetic acid i.p., dose reducing writhing frequency by 50%. The method, then: In the mouse writhing test, a writhing response is defined as a contraction of the abdominal musculature followed by extension of the hind limbs. Acetic acid administered intraperitoneally (10 ml./kg.) at a concentration of 0.6% was used to induce a writhing response. Five Cox Standard albino mice weighing 20-22 g. after being fasted overnight were observed simultaneously for the writhing response. Each mouse was used only once. The observation period was then […] and started five minutes following administration of the acetic acid. Inhibition of mouse writhing was calculated from the total number of writhes in the control and test compound-treated groups according to the following formula: [formula]
The dose required to reduce the frequency of writhing by 50% is defined as the ED50 and is calculated by "The use of Regression Line in Reverse", [Brownlee, K.A., Statistical Theory and Methodology in Science and Engineering, 2nd Ed., New York, John Wiley and Sons (1965)].
(An intraperitoneal irritant provokes the stretching counted in writhing tests.)

Test [3] has as its system mice. As to conditions: cited from earlier work.

In the case of `CCN(C(=O)CNC(=O)[C@@H](COC)NC(=O)[C@H](Cc1ccc(O)cc1)NC)[C@@H](Cc1ccccc1)CN(C)C` [Ser(Me) Et H, L-(N-Methyl)tyrosyl-D-(O-methyl)serylglycine, [N-ethyl-N-(1-benzyl-2-dimethylamino)ethyl]amide, Diacetate Salt], the “Mouse Jump ED50” value in test [1] worked out at 0.09 mg/kg. Besides, in test [2], the “Mouse Writhing, ED50, Oral” value worked out at 53.5 mg/kg and the “Mouse Writhing, ED50, Subcutaneous” value amounted to 3.6 mg/kg.

For `CCN(C(=O)CNC(=O)[C@@H](C)NC(=O)[C@H](Cc1ccc(O)cc1)NC)[C@@H](Cc1ccc(F)cc1)CN(C)C` [Ala Et p-F, L-(N-Methyl)tyrosyl-D-alanylglycine[N-ethyl-N-[1-(4'-fluorobenzyl)-2-dimethylamino]ethyl]amide, Diacetate Salt], in test [1], the “Mouse Jump ED50” value worked out at 0.04 mg/kg. Besides, in test [2], the “Mouse Writhing, ED50, Oral” value was found to be 88.2 mg/kg and the “Mouse Writhing, ED50, Subcutaneous” value was determined as 2.1 mg/kg.

Consider “H-Tyr-Gly-Gly-Phe-Leu-OH [leucine enkephalin]”, for which the “analgesic activity upon intracerebroventricular administration” value in test [3] is recorded as “exhibit analgesic activity”.

With `CCN(C(=O)CNC(=O)[C@@H](C)NC(=O)[C@H](Cc1ccc(O)cc1)NC)[C@@H](Cc1ccccc1)CN(C)C` [Ala Et H, L-(N-Methyl)tyrosyl-D-alanylglycine, [N-ethyl-N-(1-benzyl-2-dimethylamino)ethyl]amide, Diacetate Salt], in test [1], the “Mouse Jump ED50” value was found to be 0.04 mg/kg. Further, in test [2], the “Mouse Writhing, ED50, Oral” value worked out at 50.4 mg/kg and the “Mouse Writhing, ED50, Subcutaneous” value is 1.14 mg/kg.

With `CN[C@@H](Cc1ccc(O)cc1)C(=O)N[C@H](C)C(=O)NCC(=O)N(C)[C@@H](Cc1ccccc1)CN(C)C` [Ala Me H, L-(N-Methyl)tyrosyl-D-alanylglycine, [N-methyl-N-(1-benzyl-2-dimethylamino)ethyl]amide, Diacetate Salt], in test [1], the “Mouse Jump ED50” value was determined as 0.05 mg/kg. Besides, in test [2], the “Mouse Writhing, ED50, Oral” value was ~ 160 mg./kg and the “Mouse Writhing, ED50, Subcutaneous” value amounted to 1.81 mg/kg.

As for “H-Tyr-Gly-Gly-Phe-Met-OH [methionine enkephalin]”, the “analgesic activity upon intracerebroventricular administration” value in test [3] is listed as “exhibit analgesic activity”.
